According to patent US5166135A, “Method for the control of pneumocystis carinii” (Merck & Company, Inc., priority 1991, dated 1992):
“And” between values parts separate entries of the source, which are not always exact repeats. Equal values may be shown once. Numbered stars: 1 amine (or outer) side, 2 acyl side, 3 side chain; on linkers, the order of the positions; unused ones are H or OH. Bridge positions count the residues as written; N and C are the ends. Square brackets hold non-standard residues; d marks the D form. Peptide text beside a SMILES is read from it. * marks the point of attachment. ξ: configuration not given here. Orn(4R-OH,5R-OH) = O=C([C@H](C[C@@H](O)[C@@H](O)N[*:3])N[*:1])[*:2]; ξOrn(4R-OH,5R-OH) = O=C(C(C[C@@H](O)[C@@H](O)N[*:3])N[*:1])[*:2]; Tetradecanoyl(10R,12S-Me2) = CC[C@H](C)C[C@H](C)CCCCCCCCC(=O)*; hTyr(3S-OH,4S-OH) = N[C@H](C(=O)O)[C@H](O)[C@@H](O)c1ccc(O)cc1; ξhTyr(3S-OH,4S-OH) = NC(C(=O)O)[C@H](O)[C@@H](O)c1ccc(O)cc1; ξOrn(4,5-diOH) = O=C(C(CC(O)C(O)N[*:3])N[*:1])[*:2]; ξhTyr(βξ-OH,γξ-OH) = NC(C(=O)O)C(O)C(O)c1ccc(O)cc1; Pro(3S-OH,4S-Me) = C[C@H]1CN[C@H](C(=O)O)[C@H]1O; Benzoyl(4-octyloxy) = CCCCCCCCOc1ccc(C(=O)*)cc1; Gln(3R-OH) = NC(=O)C[C@@H](O)[C@H](N)C(=O)O; Linoleoyl = CCCCC/C=C\C/C=C\CCCCCCCC(=O)*; X1 = C[C@H]1CN([*:1])C(C(=O)[*:2])[C@H]1O; ξPro(3ξ-OH,4ξ-Me) = CC1CNC(C(=O)O)C1O; ξPro(4R-OH) = O=C(O)C1C[C@@H](O)CN1; Stearoyl = CCCCCCCCCCCCCCCCCC(=O)*; Hyp = O=C(O)[CH]1C[CH](O)CN1; ξT = CC(O)C(N)C(=O)O

Key:
P. carinii [1] = experiment: Immunosuppressed mice study, reduction of cysts (Table II); type: in vivo, C3 H/HeN mice; details: 2 mg/kg intraperitoneally twice daily for one week
Description: Male C3 H/HeN mice, weighing 22-24 grams each, were immunosuppressed by the addition of dexamethasone to the drinking water for six weeks to induce the development of P. carinii infections. To enhance the infections the mice were also maintained on a low protein diet. At the beginning of the seventh week, the mice were randomly divided into groups of 6. All groups continued to receive dexamethasone in the drinking water and low protein diet for the remainder of the study. Mice in each group were injected intraperitonially twice daily with 0.5 ml of a 10% DMSO solution as a vehicle control or the same cocktail containing drug to achieve a dose of 2 mg/kg. This procedure was continued for one week.
At the end of the treatment period (a total of seven weeks of immunosuppression) the animals were sacrificed and the lung tissue removed. The tissue was then processed to determine the number of cysts for each animal.

[2] = tested on: Pneumocystis carinii cysts; experiment: 4-day treatment experiments, minimum effective dose for 90 percent clearance of cysts (Table III); type: in vivo; details: minimum effective dose for 90 percent clearance of cysts, six animals per dose level
Description: When 4-day treatment experiments were carried out in a similar manner, but using different doses in order to determine the minimum effective dose for 90 percent clearance of Pneumocystis carinii cysts, the results shown on Table III were obtained (Six animals were used at each dose level.)

P. carinii [3] = experiment: In vivo testing of Compound IA and TMP-SMZ against P. carinii in immunosuppressed rats (Table I); set-up: species or system Sprague-Dawley rats
Description: In a representative study employing Compound IA in rats, nine male Sprague-Dawley rats from a colony known to have latent P. carinii infections, weighting approximately 200 grams each, were immunosupressed by the addition of dexamethasone to the drinking water (2.0 mg/liter) for six weeks to induce the development of P. carinii infections. To enhance the infection the rats were also maintained on a low protein diet. At the beginning of the seventh week the rats were divided into three groups of three rats each. All three groups continued to receive dexamethasone in the drinking water and low protein diet throughout the remainder of the study. The rats in Group I were kept as untreated infected controls, those in Group II were injected intraperitoneally twice daily for two weeks with 0.5 ml of sterile dH2 O containing 2 mg of Compound IA, and those in Group III were treated with trimethoprim-sulfamethoxazole (TMP-SMZ) in the drinking water (208 mg TMP and 1.040 g of SMZ/liter) for two weeks, a known treatment for P. carinii infections. Two rats died early in the experiment. One was from group II (rat 72A) and the other from group III (rat 75A). It was not determined whether they died from Pneumocystis pneumonia. At the end of the two week treatment period (a total of eight weeks of immunosuppression) the animals were sacrificed and the lung tissue removed. The lungs from each animal were weighed, and then processed to determine the number of cysts and parasite nuclei for each animal.

P. carinii [4] = experiment: Repeat rat experiment with larger number of rats, cysts per lung; type: in vivo; details: five rats Compound IA, six rats TMP-SMZ; DMSO control 5.8×10^5 to 3.1×10^7; limit of resolution 2.8×10^3
Pneumocystis carinii [5] = experiment: Similar rat study, 7 days treatment, antipneumocystis activity of Compound IBii and Compound IA; type: in vivo; details: rats, 2 mg/kg injected twice daily for 7 days; vehicle 10% DMSO
Description: A similar rat study was conducted to determine the antipneumocystis activity of 1-[(4R,5R)-4,5-dihydroxy-N^2 -[4-(octyloxy)benzoyl]-L-iiornithine]echinocandin B (Compound IBii). After 6 weeks of immunosuppression the rats were injected twice daily for 7 days with vehicle alone, Compound IBii (2 mg/kg) or Compound IA (2 mg/kg) during which time immunosuppression was continued. At the end of the treatment period the animals were sacrificed and the number of cysts per lung determined. Compound IA reduced the number of cysts by >99% while Compound IBii reduced the cyst counts by approximately 84% (compared to the vehicle control, 10% DMSO).

P. carinii [6] = experiment: Long term (21 days) therapy study, rate of cyst clearance; type: in vivo
Description: Pentamadine was administered intravenously daily at a dose of 10 mg/kg, 2.5 times the recommended dose for man. Compound IA was given twice daily intraperitonealy at 1.0 mg/kg.

P. carinii [7] = experiment: Prophylaxis study in immunosuppressed rats with latent P. carinii infections (Table IV); type: in vivo
Description: In a study to test the effectiveness of these compounds as a potential prophylactic agent, rats with latent P. carinii infections were immunosuppressed with dexamethasone in drinking water to stimulate the development of acute PCP. During this immunosuppression period the animals were given daily subcutaneous injections of either 1 mg/kg of Compound IA or vehicle. After six weeks all animals were sacrificed. The number of cysts per lung was determined microscopically and the nuclei (trophozites)were quantitated using a specific DNA probe. From the following table (Table IV) it can be seen that the development of both cysts and trophozoite forms of P. carinii is prevented by daily treatments of Compound IA.

Solubility properties = type: physicochemical; details: methanol, ethanol, dimethylformamide, dimethyl sulfoxide, and the like
Pneumocystis carinii [8] = experiment: Rat study of the 2-aminoethyl ether of tetrahydroechinocandin B, four days subcutaneous, four dose levels; type: in vivo, Sprague-Dawley rats; details: rats
Description: In still another study, the antipneumocystis activity of a compound in wherein R^I is OH, R^II is OH, R^III is --CH2 CH2 NH2, R^I is OH, R^V is CH3, R^V is CH3, R is [drawing 21] preparation and structure in Example G) was determined. In this study, Sprague-Dawley rats (weighing approximately 250 g) were immunosuppressed with dexasone in the drinking water (2.0 mg/L) and maintained on a regular protein diet for 7 weeks to induce the development of pneumocystis pneumonia from a latent infection. Before drug treatment 2 rats were sacrificed to confirm the presence of Pneumocystis carinii pneumonia (PCP), both rats had infections. The remaining rats (weighing approximately 150 g) were distributed into groups of 6 and injected twice daily for four days subcutaneously with compound in 0.25 ml of vehicle (10% DMSO). The control groups received vehicle alone. All animals continued to receive dexasone in the drinking water and regular diet during the drug treatment period. At the completion of treatment all animals were sacrificed, the lungs were removed and processed, and the extent of disease determined by microscopic analysis of stained slides.
Four dose levels of this compound were tested.

[9] = individual rats, after two weeks treatment
[10] = individual rats, after two weeks: Compound IA 2 mg i.p. twice daily, or TMP-SMZ in drinking water
[11] = 1 mg/kg s.c. daily for six weeks, P ≤ 0.002

CCCCC/C=C\C/C=C\CCCCCCCC(=O)N[C@H]1C[C@@H](O)[C@@H](O)NC(=O)[C@@H]2[C@@H](O)[C@@H](C)CN2C(=O)[C@H]([C@@H](C)O)NC(=O)[C@H]([C@H](O)[C@@H](O)c2ccc(O)cc2)NC(=O)[C@@H]2C[C@@H](O)CN2C(=O)[C@H]([C@@H](C)O)NC1=O [Echinocandin B] (Linoleoyl-[Orn(4R-OH,5R-OH)]T[Hyp][hTyr(3S-OH,4S-OH)]T[Pro(3S-OH,4S-Me)]; lactam 1-C)
% Reduction of Cysts (P. carinii [1]): > 99%
ED90 [2]: 1.2 mg/kg

CC[C@H](C)C[C@H](C)CCCCCCCCC(=O)N[C@H]1C[C@@H](O)[C@@H](O)NC(=O)[C@@H]2[C@@H](O)[C@@H](C)CN2C(=O)[C@H]([C@H](O)CC(N)=O)NC(=O)[C@H]([C@H](O)[C@@H](O)c2ccc(O)cc2)NC(=O)[C@@H]2C[C@@H](O)CN2C(=O)[C@H]([C@@H](C)O)NC1=O [Compound IA] ({Tetradecanoyl(10R,12S-Me2)}-[Orn(4R-OH,5R-OH)]T[Hyp][hTyr(3S-OH,4S-OH)][Gln(3R-OH)][Pro(3S-OH,4S-Me)]; lactam 1-C)
CYST SCORE (P. carinii [3]; [9]): 0
LUNG WT. (P. carinii [3]; [9]): 2.83 gms and 1.40 gms
TOTAL NUCLEI per gm lung (P. carinii [3]; [10]): 7.4 × 10^8 and 7.1 × 10^8
TOTAL NUCLEI per lung (P. carinii [3]; [10]): 2.1 × 10^9 and 1.0 × 10^9
cysts in the lungs of treated rats (P. carinii [3]; two weeks treatment, controls 3.2×10^8 -1.5×10^9): No cysts could be found
number of parasite nuclei (range over treated rats) (P. carinii [3]; two weeks treatment, controls 5.8×10^9 -1.4×10^10): 1.0-2.1×10^9
number of cysts per lung (range over rats) (P. carinii [4]): 3.2×10^3 to 2.6×10^4
reduction of number of cysts per lung compared to vehicle control (Pneumocystis carinii [5]): > 99%
% Reduction of Cysts (P. carinii [1]): > 99%
extent of cyst clearance (reduction) (P. carinii [6]; Compound IA 1.0 mg/kg i.p. twice daily, compared with known agents at the two week time point): greater than 99%
time to elimination of cysts (P. carinii [6]; Compound IA 1.0 mg/kg intraperitoneally twice daily): ≤ 4 days
ED90 [2]: 0.2 mg/kg
Cysts Log Mean (P. carinii [7]; 1 mg/kg s.c. daily for six weeks during immunosuppression, detection limit 4.66, control 7.76 ± 0.10): 4.70 ± 0.04
Nuclei Log Mean (P. carinii [7]; 1 mg/kg s.c. daily for six weeks, DNA probe, detection limit 4.66, control 7.50 ± 0.15): 4.85 ± 0.05
Cysts Reduction (P. carinii [7]; [11]): > 99.9%
Nuclei Reduction (P. carinii [7]; [11]): 99.8%
Mean Lung Wt. (P. carinii [7]; 1 mg/kg s.c. daily for six weeks, P ≤ 0.002 vs control): 1.81 ± .10 gms
Mean Body Wt. (P. carinii [7]; 1 mg/kg s.c. daily for six weeks, control 147.1 ± 6.3): 142.0 ± 4.2 gms
solubility in organic solvents (Solubility properties): soluble

CCCCCCCCOc1ccc(C(=O)NC2C[C@@H](O)[C@@H](O)NC(=O)C3[C@@H](O)[C@@H](C)CN3C(=O)C(C(C)O)NC(=O)C([C@H](O)[C@@H](O)c3ccc(O)cc3)NC(=O)C3C[C@@H](O)CN3C(=O)C(C(C)O)NC2=O)cc1 (stereo partly drawn) [Compound IBii, 1-[(4R,5R)-4,5-dihydroxy-N^2-[4-(octyloxy)benzoyl]-L-ornithine]echinocandin B] ({Benzoyl(4-octyloxy)}-[ξOrn(4R-OH,5R-OH)][ξT][ξPro(4R-OH)][ξhTyr(3S-OH,4S-OH)][ξT][X1]; lactam 1-C)
reduction of number of cysts per lung compared to vehicle control (Pneumocystis carinii [5]): approximately 84%
ED90 [2]: 4.0 mg/kg

O-benzyltetrahydroechinocandin B [O-Benzyl-TEB]
% Reduction of Cysts (P. carinii [1]): 99%

O-methyltetrahydroechinocandin B [O-Methyl-TEB]
% Reduction of Cysts (P. carinii [1]): > 99%

Tetrahydroechinocandin-B, 2-aminoethyl Ether, Trifluoroacetate Salt [Example G]
reduction of cysts (Pneumocystis carinii [8]; 18.25 μg/kg s.c. twice daily for four days): 96%
reduction of cysts (Pneumocystis carinii [8]; 37.5 μg/kg s.c. twice daily for four days): 98%
reduction of cysts (Pneumocystis carinii [8]; 75 μg/kg s.c. twice daily for four days): 99%
reduction of cysts (Pneumocystis carinii [8]; 150 μg/kg s.c. twice daily for four days): 99%
ED90 (Pneumocystis carinii [8]; s.c. twice daily for four days, cyst reduction): below 18.25 μg/kg
ED90 [2]: < 0.02 mg/kg

CCCCCCCCCCCCCCCCCC(=O)NC1CC(O)C(O)NC(=O)C2C(O)C(C)CN2C(=O)C(C(C)O)NC(=O)C(C(O)C(O)c2ccc(O)cc2)NC(=O)C2CC(O)CN2C(=O)C(C(C)O)NC1=O (stereo not drawn) [Tetrahydroechinocandin B (TEB), tetrahydroechinocandin B] (Stearoyl-[ξOrn(4,5-diOH)]T[Hyp][ξhTyr(βξ-OH,γξ-OH)]T[ξPro(3ξ-OH,4ξ-Me)]; lactam 1-C; configuration not given here)
% Reduction of Cysts (P. carinii [1]): 99%
ED90 [2]: 0.2 mg/kg
